This is an account of results in patent publication US20230391824A1, “RATIONALE, DESIGN, SYNTHESIS AND VALIDATION OF A SMALL MOLECULE ANTICANCER AGENT” (priority 2021, published 2023).

Read-outs that look alike come from different tables or passages of the source.

In one series the target is T1, Lin28A protein (Homo sapiens, UniProt Q9H9Z2).
T1 construct: in a panel of endogenously LIN28 expressing cancer cell models; endogenous in cells; host or cells: T47D, YP-MEL, BT-12, BT-37, NT-2 (NTERA)
T1 sequence (Q9H9Z2 1-209): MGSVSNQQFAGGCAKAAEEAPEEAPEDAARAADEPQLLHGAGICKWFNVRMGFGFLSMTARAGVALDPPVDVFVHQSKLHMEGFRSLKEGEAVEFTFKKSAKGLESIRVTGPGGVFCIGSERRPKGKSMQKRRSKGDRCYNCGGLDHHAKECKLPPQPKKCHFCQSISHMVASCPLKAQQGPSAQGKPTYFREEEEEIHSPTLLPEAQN
Briefly: Western blotting of Lin28A protein in cancer cell models. In kind it is cell-based. The method, then:
FIG. 5: Compound of formula (I) mixture, containing the two isomers (P1+P2) causes significant reduction in Lin28A protein from 5 μM onwards, in a panel of endogenously LIN28 expressing cancer cell models. […] LIN28A and LIN28B expression profile in pediatric CNS cancer cell lines, 96-hr post-treatment with Compound of formula (I). SDS-PAGE on 10% polyacrylamide gel of total cell lysates from untreated cells harvested at 80-90% confluency. Samples loaded with volumes for 20 μg protein. LIN28A and LIN28B proteins were detected using the anti-LIN28A antibody (#8706; Cell Signaling Technology) and anti-LIN28B antibody (#11965; Cell Signalling Technology) at 1:2000 dilutions. T47D: adult breast cancer (LIN28A expressing); YPMEL: malignant melanoma derived from Neurocutaneous Melanosis (NCM) (Lin28A and Lin28B expressing); BT-12: pediatric atypical-teratoid rhabdoid tumor (AT/RT).
FIG. 7A-C: To determine the differences in the biological activity of the two isomers (P1+P2) of Compound of formula (I), we tested the effects of purified and separated P1 and P2 isomers on the protein expression of Lin28A and Lin28B. (A) YP-MEL (NCM). (B) BT-37 (AT/RT). (C) NT-2 (NTERA) (Testicular cancer).
The proteins were extracted from the same samples as the RNA using the RIPA lysis buffer. The protein extracts (20 μg) were run on 10% SDS-PAGE and transferred on a nitrocellulose blotting membrane 0.22 μm (GE Healthcare) using the Trans-Blot® SD semi-dry transfer devise (Biorad). The proteins were detected using the anti-Lin28A antibody (#8706; Cell Signaling Technology), anti-Lin28B antibody (#11965, Cell Signaling Technology) the anti-beta-actin antibody at respectively 1:2000, 1:2000 and 1:5000 dilutions.
On the technique in general: Immunoblotting shows a protein as a band on a membrane.

The nature of a further series: Solubility. In kind it is physicochemical.
The subject of series [1] is BHQ1-pre-let7a and EGFP-Lin28A bound complexes. Briefly: FRET assay, displacement of BHQ1-pre-let7a from EGFP-Lin28A. The settings on record: at 1 μM; 19B-let7a at 100 nM. In kind it is binding. The procedure:
This method was adapted from Roos et al (2016). HEK 293-T cells (ATCC) were cultured as monolayers in DMEM GlutaMAX™-1 (Cat #31966-021, Gibco®, Life Technologies) supplemented with 10% of FBS (fetal bovine serum). Stable EGFP-Lin28A HEK 293-T cells were cultured as monolayers in DMEM supplemented with 10% of FBS (fetal bovine serum) and 0.5 mg/ml Geneticin G418 (10131-035, Life Technologies). Transfections were performed according to the manufacturer's protocol with […] (12252-011, Invitrogen, Life Technologies) for siRNAs and JetPEI (101-10, Polyplus transfections) was used for plasmid DNA. […]
160,000 HEK 293 T cells were seeded per well in 6 well plates and transfected with 320 ng pEGFP-C2-Lin28A plasmid according to the experimental setup with the reagents described above and cells were allowed to recover for 48h. […] The EGFP-lin28A| expressing cells were sorted using Fluorescence Activated Cell Sorting (FACS). Finally, larger colonies of individual clones were analyzed for expression levels of EGFP-Lin28A by performing the FRET assay. […]
FRET system (EGFP-Lin28A and 19B-let7a) treated with DMSO was used as positive control. […] The FRET measurements were obtained from the optimized fluorescence parameter. […] The average signal intensity and background fluorescence were corrected with compound self-fluorescence with and without binding buffer.

Regarding `CC[C@H](C)[C@H](NC(=O)[C@H](Cc1ncc[nH]1)NC(=O)c1cccc(C(N)=O)c1)C(=O)Nc1ccc(O)c(-c2nc3ccccc3s2)c1` [Compound P1], the “selectivity relative to the crude mixture containing P1+P2” value on Lin28A protein (Lin28A inhibition, FIG. 7 versus FIG. 5) came to 5 times. The “concentration from which Lin28A is selectively inhibited” value on Lin28A protein (YP-MEL, BT-37, NT-2 cells) is not below 1 µM. Further, the solubility amounted to 100 mg/mL in “Solubility” (DMSO, organic solvent or mixture, read-out: solubility in DMSO); 10 mM in the series “Solubility” (organic solvent or mixture, DMSO, freeze dried, RP-HPLC purified P1, read-out: solubility in DMSO); 0.05 mM in “Solubility” (water/PBS/culture medium, aqueous buffer, read-out: solubility in water/PBS/culture medium). Further, in series [1], the “reduction in FRET” value is 70%.
